These results are taken from paper PMC9381536, “Non-apoptotic cell death induction via sapogenin based supramolecular particles” (Scientific Reports, 2022).

Holding throughout (assay): Cytotoxicity analysis (WST-1)
Holding throughout (assay type): cell-based

One assay relates to A549. Conditions: Homo sapiens, A549, 48 h. The procedure: (§1) HCC1937 (Human breast cancer line), HeLa (Human […]), A549 (Human lung adenocarcinoma), MRC-5 (Human lung fibroblasts), MCF7 (Human breast cancer cells), A549 (human lung carcinoma) were obtained from American Type Culture Collection and maintained as exponentially growing monolayers by culturing according to the supplier’s instructions. MCF7, HeLa, MRC-5, and A549 cell lines were cultured and routinely passaged in DMEM media containing 10% FBS, while HCC1937 cell lines were propagated in RPMI 1640 containing 10% FBS.
(§2) Following the treatment with compounds or vehicle for 48 h, the 10% WST-1 (Roche, Switzerland) in medium was replaced in each 96 well. After 4 h incubation with WST-1 reagent at 37 °C and 5% CO2, the absorbance was measured using a microplate reader at 440 nm (Varioscan, Thermo Fisher Scientific, US). Graph Pad Prism 5 (San Diego, CA, US.) was used to calculate the IC50, which represents the concentration of compounds that is required for 50% inhibition in comparison to the vehicle-treated controls. The experiments were repeated three times independently.

The test system of another assay is HCC1937. The settings on record: Homo sapiens, HCC1937, 48 h. The protocol: as §1, §2
The subject of another assay is HeLa. The settings on record: Homo sapiens, 48 h. The procedure: as §1, §2
For the next assay, the system named is MCF7. Conditions: Homo sapiens, MCF7, 48 h. The procedure: as §1, §2
The next assay concerns MRC-5. Conditions: Homo sapiens, MRC5, MRC-5 normal cell line, 48 h. The procedure: as §1, §2

Consider `Cc1ccc(S(=O)(=O)OC2CC3(C)CCC45CC46CCC(OS(=O)(=O)c4ccc(C)cc4)C(C)(C)C6C=CC5C3(C)C2)cc1` (stereo not drawn) [SCG-04], for which the concentration for half-maximal inhibition (IC50) in the assay with A549, in the assay on HCC1937, with HeLa, in the assay on MCF7 and with MRC-5 was > 50 µM throughout.

Regarding `CC(C)(O)C1CCC(C)(C2C(O)CC3(C)C4CC(=O)C5C(C)(C)C(O)CCC56CC46CCC23C)O1` (stereo not drawn) [CG-01], the IC50 with A549, with HCC1937, in the assay with HeLa, in the assay with MCF7 and with MRC-5 was > 30 µM each time.

As for `CC1(C)C(O)CCC23CC24CCC2(C)CC(OS(C)(=O)=O)CC2(C)C4CC(O)C13` (stereo not drawn) [SCG-07], the IC50 in the assay on A549, with HCC1937, in the assay on HeLa, with MCF7 and in the assay with MRC-5 was > 50 µM each time.

Regarding `CC(C)(O)C1CCC(C)(C2C(O)CC3(C)C4CC(=O)C5C(C)(CCC(O)C5(C)C)C4=CCC23C)O1` (stereo not drawn) [AG-01], the IC50 in the assay with A549, in the assay with HCC1937, in the assay on HeLa, in the assay with MCF7 and in the assay on MRC-5 was > 30 µM in each case.

In the case of `Cc1ccc(S(=O)(=O)OC2CC3C4(C)CC(O)CC4(C)CCC34CC43CC=CC(C)(C)C23)cc1` (stereo not drawn) [SCG-03], the 50% inhibitory concentration (IC50) in the assay on A549, in the assay on HCC1937, in the assay on HeLa, in the assay with MCF7 and in the assay with MRC-5 was > 50 µM each time.

Take `CC(C)(O)C1CCC(C)(C2C(O)CC3(C)C4C=CC5C(C)(CCC(O)C5(C)C)C4=CCC23C)O1` (stereo not drawn) [AG-03]: the IC50 with A549 turned out to be 25.5 µM; in the assay with HCC1937 it was 20.3 µM; with HeLa, 33.4 µM; with MCF7, 21.8 µM; in the assay on MRC-5 it was 24.4 µM.

For the compound `Cc1ccc(S(=O)(=O)OC2CC3(C)CCC45CC46CCC(O)C(C)(C)C6C=CC5C3(C)C2)cc1` (stereo not drawn) [SCG-05], the concentration for half-maximal inhibition (IC50) with A549, with HCC1937, in the assay on HeLa, in the assay with MCF7 and in the assay with MRC-5 was > 50 µM each time.

Regarding `CC1(C)C(O)CCC23CC24CCC2(C)CC(O)CC2(C)C4CC(O)C13` (stereo not drawn) [SCG, 20(27)-octanor-cycloastragenol, reference compound], the IC50 in the assay on A549, in the assay on HCC1937, in the assay on HeLa, with MCF7 and with MRC-5 was > 50 µM throughout.

Consider `Cc1ccc(S(=O)(=O)OC2CC3(C)CCC45CC46CCC(O)C(C)(C)C6C(O)CC5C3(C)C2)cc1` (stereo not drawn) [SCG-01], for which the IC50 in the assay with A549, in the assay with HCC1937, in the assay with HeLa, in the assay on MCF7 and with MRC-5 was > 50 µM in each case.

On to `CC(C)(O)C1CCC(C)(C2C(O)CC3(C)C4CC(O)C5C(C)(C)C(O)CCC56CC46CCC23C)O1` (stereo not drawn) [CG, cycloastragenol, reference compound], for which the concentration for half-maximal inhibition (IC50) with A549, in the assay with HCC1937, with HeLa, with MCF7 and in the assay with MRC-5 was > 50 µM in each case.

As for `CC1(C)C(OS(C)(=O)=O)CCC23CC24CCC2(C)CC(OS(C)(=O)=O)CC2(C)C4C=CC13` (stereo not drawn) [SCG-06], the 50% inhibitory concentration (IC50) in the assay on A549, in the assay with HCC1937, in the assay on HeLa, in the assay on MCF7 and with MRC-5 was > 50 µM throughout.

`CC1(C)C(O)CCC23CC24CCC2(C)CC(O)CC2(C)C4C=CC13` (stereo not drawn) [SCG-02]: the IC50 with A549, in the assay on HCC1937, in the assay with HeLa, in the assay on MCF7 and in the assay with MRC-5 was > 50 µM in each case.
